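Briefly, cells in 96-well plates were exposed to five compound concentrations for 48 h, and endpoints were estimated by linear interpolation. The concentration for full growth arrest is given as TGI.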
What was measured:
Test in all cases: DTP human tumour cell line panel, 48 h
HL-60(TB) leukemia = test system: HL-60(TB) leukemia
M14 melanoma = test system: M14 melanoma
MALME-3M melanoma = test system: MALME-3M melanoma
NCI-H460 lung = test system: NCI-H460 lung
OVCAR-5 ovarian = test system: OVCAR-5 ovarian
SK-MEL-2 melanoma = test system: SK-MEL-2 melanoma
SK-OV-3 ovarian = test system: SK-OV-3 ovarian
SN12C renal = test system: SN12C renal
SR leukemia = test system: SR leukemia
T-47D breast = test system: T-47D breast

## Cc1ccc(OCC2OC(n3cnc4nc(Cl)nc(Cl)c43)CC2Oc2ccc(C)cc2)cc1 (stereo not drawn)
HL-60(TB) leukemia
  TGI: 3.94 µM
M14 melanoma
  TGI: 20.5 µM
MALME-3M melanoma
  TGI: 33.9 µM
NCI-H460 lung
  TGI: 20.2 µM
OVCAR-5 ovarian
  TGI: 32.1 µM
SK-MEL-2 melanoma
  TGI: 18.1 µM
SK-OV-3 ovarian
  TGI: > 89.5 µM
SN12C renal
  TGI: 20.5 µM
SR leukemia
  TGI: 5.65 µM
T-47D breast
  TGI: 30.7 µM

## O=C(CN1CCN(Cc2ccccc2)CC1)N1CCCn2c1nc1ccccc1c2=O
HL-60(TB) leukemia
  TGI: > 100 µM
M14 melanoma
  TGI: > 100 µM
MALME-3M melanoma
  TGI: > 100 µM
NCI-H460 lung
  TGI: > 100 µM
OVCAR-5 ovarian
  TGI: > 100 µM
SK-MEL-2 melanoma
  TGI: > 100 µM
SK-OV-3 ovarian
  TGI: > 100 µM
SN12C renal
  TGI: > 100 µM
SR leukemia
  TGI: > 100 µM
T-47D breast
  TGI: > 100 µM

## O=C(/C=C/c1cccc(Br)c1)c1cccs1
HL-60(TB) leukemia
  TGI: 17.7 µM
M14 melanoma
  TGI: 51.1 µM
MALME-3M melanoma
  TGI: 41.6 µM
NCI-H460 lung
  TGI: 31.6 µM
SK-MEL-2 melanoma
  TGI: 44.1 µM
SK-OV-3 ovarian
  TGI: 46.8 µM
SN12C renal
  TGI: 31.1 µM
SR leukemia
  TGI: > 100 µM
T-47D breast
  TGI: 34 µM

## CCOC(=O)c1cc(C(=O)c2ccccc2)n2nc(-c3ccc(Cl)cc3)ccc12
HL-60(TB) leukemia
  TGI: > 100 µM
M14 melanoma
  TGI: 90.7 µM
MALME-3M melanoma
  TGI: 46.3 µM
NCI-H460 lung
  TGI: 50.9 µM
OVCAR-5 ovarian
  TGI: 58 µM
SK-MEL-2 melanoma
  TGI: 32.6 µM
SK-OV-3 ovarian
  TGI: 34.5 µM
SN12C renal
  TGI: 78.6 µM
SR leukemia
  TGI: > 100 µM
T-47D breast
  TGI: 92.3 µM

## O=c1/c(=C\c2ccccc2)sc2n1C(c1ccccc1)C1(O)CCCCC1N=2 (stereo not drawn)
HL-60(TB) leukemia
  TGI: > 100 µM
M14 melanoma
  TGI: > 100 µM
MALME-3M melanoma
  TGI: > 100 µM
NCI-H460 lung
  TGI: > 100 µM
OVCAR-5 ovarian
  TGI: > 100 µM
SK-MEL-2 melanoma
  TGI: > 100 µM
SN12C renal
  TGI: > 100 µM
SR leukemia
  TGI: > 100 µM
T-47D breast
  TGI: > 100 µM

## COc1cccc(-c2ccc3c4c2O[C@H]2c5[nH]c6ccccc6c5C[C@@]5(O)[C@@H](C3)N(CC3CC3)CC[C@]425)c1
M14 melanoma
  TGI: 3.27 µM
MALME-3M melanoma
  TGI: 2.88 µM
NCI-H460 lung
  TGI: 3.22 µM
OVCAR-5 ovarian
  TGI: 20.8 µM
SK-MEL-2 melanoma
  TGI: 3.69 µM
SN12C renal
  TGI: 3.13 µM
SR leukemia
  TGI: 5.51 µM
T-47D breast
  TGI: 4.23 µM

## COc1ccc2[nH]c(Cl)c(/C=C3/C(=O)Nc4cc(C)c(OC)cc43)c2c1
HL-60(TB) leukemia
  TGI: 6.08 µM
M14 melanoma
  TGI: 14.2 µM
MALME-3M melanoma
  TGI: 18.2 µM
NCI-H460 lung
  TGI: 12.9 µM
OVCAR-5 ovarian
  TGI: 27.2 µM
SK-MEL-2 melanoma
  TGI: 7.8 µM
SK-OV-3 ovarian
  TGI: 9.4 µM
SN12C renal
  TGI: 20.1 µM
SR leukemia
  TGI: > 100 µM
T-47D breast
  TGI: 30.4 µM

## Clc1cc2c(c(CSC3=NCN(CC4CC4)CN3)c1)OCOC2
HL-60(TB) leukemia
  TGI: 33.7 µM
M14 melanoma
  TGI: 27.9 µM
MALME-3M melanoma
  TGI: 34.2 µM
NCI-H460 lung
  TGI: 39.6 µM
OVCAR-5 ovarian
  TGI: 48.9 µM
SK-MEL-2 melanoma
  TGI: 35.4 µM
SK-OV-3 ovarian
  TGI: 67.1 µM
SN12C renal
  TGI: > 100 µM
SR leukemia
  TGI: 42.2 µM
T-47D breast
  TGI: 62.2 µM

## FC(F)(F)c1ccccc1N1CCN(c2nc(-c3cccs3)nc3ccc(Br)cc23)CC1
HL-60(TB) leukemia
  TGI: > 100 µM
M14 melanoma
  TGI: > 100 µM
MALME-3M melanoma
  TGI: 55.9 µM
NCI-H460 lung
  TGI: > 100 µM
OVCAR-5 ovarian
  TGI: > 100 µM
SK-MEL-2 melanoma
  TGI: 74.1 µM
SK-OV-3 ovarian
  TGI: > 100 µM
SN12C renal
  TGI: > 100 µM
SR leukemia
  TGI: > 100 µM
T-47D breast
  TGI: > 100 µM

## C/C(=N/NC(=S)Nc1ccccc1Cl)c1cccc(/C(C)=N\NC(=S)Nc2ccccc2Cl)n1
HL-60(TB) leukemia
  TGI: > 100 µM
M14 melanoma
  TGI: > 100 µM
MALME-3M melanoma
  TGI: > 100 µM
NCI-H460 lung
  TGI: > 100 µM
OVCAR-5 ovarian
  TGI: > 100 µM
SK-MEL-2 melanoma
  TGI: > 100 µM
SK-OV-3 ovarian
  TGI: > 100 µM
SN12C renal
  TGI: > 100 µM
SR leukemia
  TGI: > 100 µM
T-47D breast
  TGI: > 100 µM

## c1ccc(C2=Nc3nc4ccccc4n3C(c3ccccc3)C2)cc1 (stereo not drawn)
HL-60(TB) leukemia
  TGI: > 100 µM
M14 melanoma
  TGI: > 100 µM
MALME-3M melanoma
  TGI: > 100 µM
NCI-H460 lung
  TGI: > 100 µM
OVCAR-5 ovarian
  TGI: > 100 µM
SK-MEL-2 melanoma
  TGI: > 100 µM
SK-OV-3 ovarian
  TGI: > 100 µM
SR leukemia
  TGI: > 100 µM
T-47D breast
  TGI: > 100 µM

## CC(=O)N1CCc2c([nH]c3ccc(Br)cc23)C1c1ccccc1 (stereo not drawn)
HL-60(TB) leukemia
  TGI: > 10 µM
M14 melanoma
  TGI: > 10 µM
MALME-3M melanoma
  TGI: > 10 µM
NCI-H460 lung
  TGI: > 10 µM
OVCAR-5 ovarian
  TGI: > 10 µM
SK-MEL-2 melanoma
  TGI: > 10 µM
SK-OV-3 ovarian
  TGI: > 10 µM
SN12C renal
  TGI: > 10 µM
SR leukemia
  TGI: > 10 µM
T-47D breast
  TGI: > 10 µM

## Cn1ccn2c3nc4ccccc4nc3c(=O)c(C#N)c12
HL-60(TB) leukemia
  TGI: > 100 µM
M14 melanoma
  TGI: > 100 µM
MALME-3M melanoma
  TGI: > 100 µM
NCI-H460 lung
  TGI: > 100 µM
OVCAR-5 ovarian
  TGI: > 100 µM
SK-MEL-2 melanoma
  TGI: > 100 µM
SK-OV-3 ovarian
  TGI: > 100 µM
SN12C renal
  TGI: > 100 µM
SR leukemia
  TGI: > 100 µM
T-47D breast
  TGI: > 100 µM

## COC(=O)C1=C(C)NC2(O)C=CC(=O)C3C(=O)N(c4ccccc4)C(=O)C132 (stereo not drawn)
HL-60(TB) leukemia
  TGI: > 100 µM
M14 melanoma
  TGI: > 100 µM
MALME-3M melanoma
  TGI: 88 µM
NCI-H460 lung
  TGI: > 100 µM
OVCAR-5 ovarian
  TGI: > 100 µM
SK-MEL-2 melanoma
  TGI: > 100 µM
SK-OV-3 ovarian
  TGI: > 100 µM
SN12C renal
  TGI: > 100 µM
SR leukemia
  TGI: > 100 µM
T-47D breast
  TGI: > 100 µM

## Cc1c(C(=O)N2CCN(c3ccc([N+](=O)[O-])cc3)CC2)[n+](=O)c2cc(Cl)c(Cl)cc2n1[O-]
HL-60(TB) leukemia
  TGI: > 100 µM
M14 melanoma
  TGI: > 100 µM
MALME-3M melanoma
  TGI: 48.4 µM
NCI-H460 lung
  TGI: 56.7 µM
OVCAR-5 ovarian
  TGI: 44 µM
SK-MEL-2 melanoma
  TGI: > 100 µM
SK-OV-3 ovarian
  TGI: 29.5 µM
SN12C renal
  TGI: 38.2 µM
SR leukemia
  TGI: 61.2 µM
T-47D breast
  TGI: 45 µM

## Cn1c(=O)c2c(nc3n(Cc4ccccc4)c(=O)c(NCCBr)cn23)n(C)c1=O
HL-60(TB) leukemia
  TGI: > 100 µM
M14 melanoma
  TGI: > 100 µM
NCI-H460 lung
  TGI: > 100 µM
OVCAR-5 ovarian
  TGI: > 100 µM
SK-MEL-2 melanoma
  TGI: 74.2 µM
SK-OV-3 ovarian
  TGI: 51.9 µM
SN12C renal
  TGI: > 100 µM
SR leukemia
  TGI: 52.9 µM
T-47D breast
  TGI: 52.9 µM

## CCC1C(c2cccc(OC)c2O)c2cc3c(cc2OC1N1CCCC1)OCO3 (stereo not drawn)
M14 melanoma
  TGI: 23.9 µM
NCI-H460 lung
  TGI: 55.3 µM
OVCAR-5 ovarian
  TGI: 76.9 µM
SK-MEL-2 melanoma
  TGI: 43.5 µM
SN12C renal
  TGI: 38.3 µM
SR leukemia
  TGI: 50.4 µM
T-47D breast
  TGI: 68.7 µM

## COc1ccc2cc1Oc1ccc(cc1)C(Sc1ccccc1)CCOC(=O)CC2 (stereo not drawn)
HL-60(TB) leukemia
  TGI: > 100 µM
M14 melanoma
  TGI: > 100 µM
MALME-3M melanoma
  TGI: > 100 µM
OVCAR-5 ovarian
  TGI: > 100 µM
SK-MEL-2 melanoma
  TGI: > 100 µM
SK-OV-3 ovarian
  TGI: > 100 µM
SN12C renal
  TGI: > 100 µM
SR leukemia
  TGI: > 100 µM
T-47D breast
  TGI: > 100 µM

## O=C(/C=C/c1ccsc1)c1ccco1
HL-60(TB) leukemia
  TGI: 24 µM
M14 melanoma
  TGI: 24.2 µM
NCI-H460 lung
  TGI: 33.4 µM
OVCAR-5 ovarian
  TGI: 34.9 µM
SK-MEL-2 melanoma
  TGI: 38.9 µM
SK-OV-3 ovarian
  TGI: 42.3 µM
SN12C renal
  TGI: 28.6 µM
SR leukemia
  TGI: 9.14 µM
T-47D breast
  TGI: 27.2 µM

## Cc1ccnc2[nH]c(-c3cccc(Cl)c3)cc(=O)c12
HL-60(TB) leukemia
  TGI: 0.0611 µM
M14 melanoma
  TGI: > 100 µM
NCI-H460 lung
  TGI: > 100 µM
OVCAR-5 ovarian
  TGI: > 100 µM
SK-MEL-2 melanoma
  TGI: > 100 µM
SK-OV-3 ovarian
  TGI: > 100 µM
SN12C renal
  TGI: > 100 µM
SR leukemia
  TGI: > 100 µM
T-47D breast
  TGI: > 100 µM

## O=C1Sc2ccc(Br)cc2C(=O)Sc2ccccc21
HL-60(TB) leukemia
  TGI: 9.71 µM
M14 melanoma
  TGI: 26.6 µM
MALME-3M melanoma
  TGI: 23.6 µM
NCI-H460 lung
  TGI: 34 µM
OVCAR-5 ovarian
  TGI: 36.8 µM
SK-MEL-2 melanoma
  TGI: 36.6 µM
SK-OV-3 ovarian
  TGI: > 62.9 µM
SN12C renal
  TGI: 34.8 µM
SR leukemia
  TGI: 4.13 µM
T-47D breast
  TGI: 31 µM

## O=C(Nc1cccc(C(F)(F)F)c1)O/N=C(/Cl)CCl
HL-60(TB) leukemia
  TGI: 38.7 µM
M14 melanoma
  TGI: > 100 µM
MALME-3M melanoma
  TGI: > 100 µM
NCI-H460 lung
  TGI: > 100 µM
OVCAR-5 ovarian
  TGI: 45.3 µM
SK-MEL-2 melanoma
  TGI: > 100 µM
SK-OV-3 ovarian
  TGI: > 100 µM
SN12C renal
  TGI: > 100 µM
SR leukemia
  TGI: 62.8 µM
T-47D breast
  TGI: > 100 µM
